Laboratory results as given in US8066980B2, “Osteogenic synthetic peptides, pharmaceutical compositions comprising the same, and medium containing the same” (Industry Foundation of Chonnam National University, priority 2008, dated 2011).
Where a SMILES comes first, the peptide text is derived from it.

B1: BMP-7: bone morphogenetic protein-7, known as an osteogenesis promoter; comparator (protein, UniProt P18075 293-431, looked up)
Bone morphogenetic protein 7: STGSKQRSQNRSKTPKNQEALRMANVAENSSSDQRQACKKHELYVSFRDLGWQDWIIAPEGYAAYYCEGECAFPLNSYMNATNHAIVQTLVHFINPETVPKPCCAPTQLNAISVLYFDDSSNVILKKYRNMVVRACGCH

What was measured:
[1] = system: cells; assay: MTT assay for cytotoxicity; type: cell-based; settings: within a range of used concentrations
[2] = system: surface marker CD44; assay: Fluorescence microscopy of surface marker CD44; type: cell-based, mouse; settings: at the same concentrations
From the text: The effects of BFP 1 and BFP 2 on the expression of the surface marker CD44 were observed under a fluorescence microscope and the results are given in FIGS. 10a and 10b.
During differentiation, the cells were stained with DAPI, a fluorescent stain that easily binds to the DNA of living cells, and with a PE(phycoerythrin)-conjugated-CD44 antibody.

Molecule | cytotoxicity (MTT assay) [1] | CD44 staining intensity compared with BFP 1 or BFP 2 [2]
CC(C)[C@H](NC(=O)[C@H](C)NC(=O)[C@H](CCCCN)NC(=O)[C@H](Cc1ccc(O)cc1)NC(=O)[C@@H]1CCCN1C(=O)[C@H](Cc1ccc(O)cc1)NC(=O)[C@H](CO)NC(=O)[C@H](Cc1ccccc1)NC(=O)CNC(=O)[C@H](CCC(N)=O)NC(=O)CN)C(=O)N[C@@H](Cc1ccccc1)C(=O)N[C@@H](CO)C(=O)N[C@H](C(=O)N[C@@H](CCC(N)=O)C(=O)O)[C@@H](C)O [BFP 1, Gly-Gln-Gly-Phe-Ser-Tyr-Pro-Tyr-Lys-Ala-Val-Phe-Ser-Thr-Gln] (H-GQGFSYPYKAVFSTQ-OH) | neither BFP 1 nor BFP 2 are toxic to cells | –
CC(C)[C@H](N)C(=O)N[C@@H](CCC(=O)O)C(=O)N[C@@H](Cc1c[nH]cn1)C(=O)N[C@@H](CC(=O)O)C(=O)N[C@@H](CCCCN)C(=O)N[C@@H](CCC(=O)O)C(=O)N[C@@H](Cc1ccccc1)C(=O)N[C@@H](Cc1ccccc1)C(=O)N[C@@H](Cc1c[nH]cn1)C(=O)N1CCC[C@H]1C(=O)N[C@@H](CCCNC(=N)N)C(=O)N[C@@H](Cc1ccc(O)cc1)C(=O)N[C@@H](Cc1c[nH]cn1)C(=O)N[C@@H](Cc1c[nH]cn1)C(=O)N[C@@H](CCCNC(=N)N)C(=O)O [BFP 2, Val-Glu-His-Asp-Lys-Glu-Phe-Phe-His-Pro-Arg-Tyr-His-His-Arg] (H-VEHDKEFFHPRYHHR-OH) | neither BFP 1 nor BFP 2 are toxic to cells | –
B1 | – | less intense staining
